Measurements reported in patent US20120053196A1, “Combination Treatment of Breast Cancer” (priority 2009, published 2012).

Legend:
ERα+/PR− tumors = details: follow-up period of 6 years, postmenopausal women; cited from earlier work
[1] = tested on: stage II invasive breast cancer; experiment: Randomized premenopausal cohort: two years of adjuvant tamoxifen vs control, recurrence free survival (Kaplan-Meier, log-rank) by HMGCR IHC status; assay type: in vivo, human; details: for outcome of HMGCR positive and ER negative patients vs HMGCR negative and ER positive patients: tamoxifen treated cohort
Description: Between 1984 and 1991, 564 pre-menopausal women with primary breast cancer in the South and Southeast regions of Sweden were enrolled in a multi-centre clinical trial and randomly assigned to either two years of adjuvant tamoxifen (n=276) or a control group (n=288). […] The inclusion criteria were pre-menopausal patients, or patients younger than 50 years, with stage II (pT2 N0 M0, pT1-2 N1 M0) invasive breast cancer treated by modified mastectomy or breast conserving surgery with axillary lymph node dissection. Post-operative radiotherapy (50 Gy) was administered after breastconserving surgery and all lymph node-positive patients received locoregional radiotherapy. […] The study design is described in detail elsewhere (Rydén L et al, Eur J Cancer, 2005, 41(2): 256-64). Ethical permission was obtained from the Local Ethics Committees at Lund and Linköping Universities.
Tissue blocks from 500 of the 564 patients could be retrieved for TMA-construction. All cases had been histopathologically re-evaluated on hematoxylin and eosin stained slides. TMA:s were constructed by sampling 2×0.6 mm cores per case from areas representative of invasive cancer, using an manual arraying device (MTA-1, Beecher Inc, WI, USA). […] IHC staining of ER and PR had been performed previously. In line with current clinical praxis, a cut-off at 10% positive nuclei was used to define hormone receptor positively.
For statistical analyses, the cytoplasmic intensity (CI) level was evaluated, in line with what is described in Examples, Section 3 above. […] Two categories were defined: “HMGCR high” corresponding to CI=weak, moderate and strong and “HMGCR low” corresponding to CI=absent This classification of samples was used for RFS analysis according to the Kaplan-Meier estimator, and the log-rank test was used to compare survival in different strata. ER and PR negativity was defined as<10% positively staining nuclei, according to current clinical guidelines in Sweden. All statistical tests were two-sided, and p-values of<0.05 were considered significant. All calculations were made with the statistical package SPSS 17.0 (SPSS Inc. Illinois, USA).

HMGCR mRNA = experiment: qRT-PCR of HMGCR mRNA levels in MCF7 cells after Simvastatin/Tamoxifen treatment; assay type: cell-based; details: five days, 10 μM Simvastatin or 100 nM Tamoxifen, FIG. 15
Description: Total RNA was isolated using the mirVANA™ miRNA Isolation Kit (Ambion) and reverse transcribed using SuperScript II™ Reverse Transcriptase (Invitrogen) according to the manufacturer's instructions. […] Relative HMG-CoAR expression levels in breast cancer cell lines were calculated using the qBase real-time PCR relative quantification software with all samples normalized to 18s rRNA. Negative controls included a no template control and a no reverse transcriptase control. All qRT-PCR reactions were performed in triplicate.

HMGCR = details: MCF7 cells, five days, 10 μM Simvastatin, 100 nM Tamoxifen, or a combination of both, FIG. 14
ERα = details: MCF7 cells, five days, 10 μM Simvastatin, 100 nM Tamoxifen, or a combination of both, FIG. 14
breast cancer = details: 5 years tamoxifen compared to no adjuvant treatment; cited from earlier work
[2] = tested on: ERα positive breast cancer; details: cited from earlier work

CC(C)(C#N)c1cc(Cn2cncn2)cc(C(C)(C)C#N)c1 [anastrozole]
recurrence rate compared to patients treated with tamoxifen (ERα+/PR− tumors): halved

CC/C(=C(\c1ccccc1)c1ccc(OCCN(C)C)cc1)c1ccccc1 [tamoxifen]
effect on RFS based on the HMGCR level ([1]; ER negative tamoxifen treated subjects, FIG. 7a): positive effect on RFS
RFS, HMGCR high category vs HMGCR low ([1]; ER positive tamoxifen treated subjects, FIG. 2a): significantly better RFS
effect of tamoxifen treatment on RFS ([1]; HMGCR negative and ER negative subjects, FIG. 10b): no positive effect
survival upon tamoxifen treatment vs no adjuvant endocrine treatment ([1]; HMGCR positive and ER negative subjects, FIG. 9a): improved survival
tamoxifen impact on survival (RFS) ([1]; HMGCR positive and PR negative subjects, FIG. 12, not statistically significant): trend of tamoxifen impact on survival
effect of tamoxifen treatment on RFS ([1]; HMGCR positive or ER positive subjects, FIG. 10a): significantly positive effect
response to tamoxifen treatment (RFS) ([1]; PR negative and HMGCR negative subjects, FIG. 11b): no response
response to tamoxifen treatment (RFS) ([1]; PR positive and HMGCR positive subjects, FIG. 11a): significant response
RFS associated with HMGCR expression ([1]; lymph node positive patients who received tamoxifen, FIG. 4a): improved RFS
survival of HMGCR positive subjects ([1]; node negative subgroups treated with tamoxifen, FIGS. 4b and 5b, too few patients for significance): trend of better survival
outcome of HMGCR positive and ER negative patients vs HMGCR negative and ER positive patients ([1]; node positive subjects, FIG. 6a): better outcome
recurrence free survival (RFS), HMGCR high category vs HMGCR low category ([1]; patients treated with adjuvant tamoxifen, FIG. 1a): significantly better RFS
survival upon tamoxifen treatment vs no adjuvant endocrine treatment ([1]; patients with HMGCR high tumors, irrespective of ER status, FIG. 8a): significantly improved survival
survival upon tamoxifen treatment vs no adjuvant endocrine treatment ([1]; patients with HMGCR low tumors, irrespective of ER status, FIG. 8b): no impact on survival
outcome of HMGCR positive and ER negative patients vs HMGCR negative and ER positive patients ([1]; FIG. 3a): better outcome
HMGCR levels of mRNA after treatment (HMGCR mRNA): slight increase
HMGCR expression (Western blot) (HMGCR): slight HMGCR expression
ERα expression (Western blot) (ERα): no ERα expression
reduction in breast cancer specific mortality (breast cancer): 34%
reduction in disease recurrence (breast cancer): 41%
fraction of patients who do not respond to tamoxifen treatment [2]: 30-40%
